Columns and labels:
Coxsackievirus [1] = assay: Antiviral activity against CVB3 infected in African green monkey Vero cells by MTT assay; format: functional, organism-based, B3
Vero = assay: (§1) Cytotoxicity in African green monkey Vero cells assessed as reduction in cell viability by MTT assay; format: cell-based; details: chlorocebus sabaeus, vero; read-out: TC50 (the source's name)
[2] = as §1; format: cell-based; details: chlorocebus sabaeus, Vero cells; read-out: TC50 (the source's name)
Coxsackievirus [3] = assay: Antiviral activity against CVB3 infected in African green monkey Vero cells assessed as reduction in degree of lesion incubated for 5 days by microscopic method; format: functional, organism-based; details: B3
[4] = Therapeutic Index, ratio of TC50 for African green monkey Vero cells to IC50 for CVB3 infected in African green monkey Vero cells; format: toxicity

[N-]=[N+]=N[C@]1(CO)O[C@@H](n2ccc(N[C@@H](CCC(=O)O)C(=O)O)nc2=O)[C@@H](F)[C@@H]1O
IC50 (Coxsackievirus [1]; Coxsackievirus, B3, Vero): 488 µM | CC50 (Vero): 30.7 µM

CNC(=O)CC[C@H](Nc1ccn([C@@H]2O[C@@](CO)(N=[N+]=[N-])[C@@H](O)[C@@H]2F)c(=O)n1)C(=O)NC
IC50 (Coxsackievirus [1]; Coxsackievirus, B3, Vero): > 1000 µM | CC50 [2]: 126 µM

[N-]=[N+]=N[C@]1(CO)O[C@@H](n2ccc(N[C@@H](CCC(N)=O)C(N)=O)nc2=O)[C@@H](F)[C@@H]1O
IC50 (Coxsackievirus [1]; Coxsackievirus, B3, Vero): > 1000 µM | CC50 [2]: 160 µM

COC(=O)[C@H](CCC(=O)O)Nc1ccn([C@@H]2O[C@@](CO)(N=[N+]=[N-])[C@@H](O)[C@@H]2F)c(=O)n1
IC50 (Coxsackievirus [1]; Coxsackievirus, B3, Vero): 870 µM | CC50 [2]: 9.3 µM | Activity (Coxsackievirus [3]): Dose-dependent effect

COC(=O)CC[C@H](Nc1ccn([C@@H]2O[C@@](CO)(N=[N+]=[N-])[C@@H](O)[C@@H]2F)c(=O)n1)C(=O)O
IC50 (Coxsackievirus [1]; Coxsackievirus, B3, Vero): 648 µM | CC50 [2]: 21.5 µM

NC(=O)c1ncn([C@@H]2O[C@H](CO)[C@@H](O)[C@H]2O)n1 [RIBAVIRIN]
IC50 (Coxsackievirus [1]; Coxsackievirus, B3, Vero): 885 µM | selectivity ratio ([4]; Vero cells, read-out: TI): 28.3 | CC50 [2]: 31.2 µM

CCNC(=O)CC[C@H](Nc1ccn([C@@H]2O[C@@](CO)(N=[N+]=[N-])[C@@H](O)[C@@H]2F)c(=O)n1)C(=O)NCC
IC50 (Coxsackievirus [1]; Coxsackievirus, B3, Vero): > 1000 µM | CC50 [2]: 150 µM

[K+].[K+].[N-]=[N+]=N[C@]1(CO)O[C@@H](n2ccc(N[C@@H](CCC(=O)[O-])C(=O)[O-])nc2=O)[C@@H](F)[C@@H]1O
IC50 (Coxsackievirus [1]; vero): 282 µM | TI ([4]; vero): 20.8 | CC50 (Vero): 13.5 µM

COC(=O)CC[C@H](Nc1ccn([C@@H]2O[C@@](CO)(N=[N+]=[N-])[C@@H](O)[C@@H]2F)c(=O)n1)C(=O)OC
IC50 (Coxsackievirus [1]; Coxsackievirus, B3, Vero): 1000 µM | CC50 [2]: 257 µM

Source: ChEMBL document CHEMBL4342433, “Synthesis and anti-CVB3 activity of 4-amino acid derivative substituted pyrimidine nucleoside analogues” (Bioorg Med Chem Lett, 2020)
